Experimental data taken from patent US20080092250A1, “Activity-induced pain in animal model of osteoarthritis” (priority 2006, published 2008).
Read-outs that look alike come from different tables or passages of the source.

Experiments:
[1] = tested on: osteoarthritic rats (unilateral i.a. MIA injection); experiment: Hind limb grip force (activity-induced pain) 20 days after i.a. MIA injection; type: in vivo, rat
Experimental: For evaluating the effects of reference analgesic drugs experiments were performed 20 days after induction of OA. Assessment of hind limb grip force was used as a behavioral measure of activity induced pain in adult OA rodents. Measurements of peak hind limb grip force were conducted by recording the maximum compressive force exerted on the hind limb strain gauge setup, in a commercially available grip force measurement system (Columbus Instruments, Columbus, Ohio). A group of age matched naïve animals were added to each experiment and the data obtained from the different dose groups for the compound being tested were compared to the naïve group.
(§1) All experiments have been approved by the Institutional Animal Care and Use Committee (IACUC) at Abbott Laboratories and are in strict accordance with the ethical guidelines laid down by the International Association for the Study of Pain (IASP) (Zimmermann, 1983) for the care and use of laboratory animals. […] Following injection, the animals were allowed to recover from the effects of anesthesia (usually 5-10 mins) before returning to their home cages. […] Animals were euthanized by CO2 inhalation on day 20. The injected knee joints were dissected and immediately fixed in 10% phosphate buffered formalin. The samples were then decalcified in 5% formic acid for 3 days, routinely processed and then embedded in paraffin wax. Frontal histologic sections of the femorotibial joints (6 μm) were prepared, stained with toluidine-blue and examined with a light microscope (Guzman et al., 2003).
(§2) Measurements of peak hind limb grip force were conducted by recording the maximum compressive force exerted on the hind limb strain gauge setup, in a commercially available grip force measurement system (Columbus Instruments, Columbus, Ohio). […] Additional tests were performed 1, 2, 4, 7, 10, 13, 17, 21, 24, and 28 days following the injections.
A group of age matched naïve animals were added to each experiment and the data obtained from the different dose groups for the compound being tested were compared to the naïve group. The vehicle control group for each compound being tested was assigned 0% whereas the naïve group was assigned as being 100% (normal). The % effects for each dose group was then expressed as % return to normalcy compared to the naïve group (=[100÷% increase from vehicle for naive group]×% increase from vehicle for treatment group) (% increase from vehicle=[Treatment CFmax−Vehicle CFmax)/Vehicle CFmax]×100). All experiments evaluating drug effects in this model were conducted in a randomized blinded fashion.

[2] = tested on: naïve rats; experiment: Hind limb grip force in naïve (non-MIA injected) rats
Experimental: as §2

[3] = tested on: rats; details: 28 days after unilateral i.a. injection, 3 mg; baseline 1090.17±52.85 g
Experimental: as §1, §2

[4] = Rattus norvegicus, po, 480 h; read-out: % effect (% return to normalcy of grip force)
[5] = Rattus norvegicus, po, 480 h; read-out: CI95% of ED50
[6] = Rattus norvegicus, po, 480 h; read-out: ED50, reversal of decreased grip force

`Nc1nnc(-c2cccc(Cl)c2Cl)c(N)n1` [Lamotrigine, lamotrigine] was tested. Which inhibition in vivo at 100 µmol/kg [1, 4] did it give?
The inhibition in vivo at 100 µmol/kg was 30 ± 3%.

`CC(=O)Nc1ccc(O)cc1` [acetaminophen] was tested. Which inhibition in vivo at 300 µmol/kg [1, 4] did it give?
The inhibition in vivo at 300 µmol/kg was 23 ± 11%.

What does the source list for `Cc1ccc(-c2cc(C(F)(F)F)nn2-c2ccc(S(N)(=O)=O)cc2)cc1` [celecoxib]?
% effect, chronic dosing ([1]; 10 μmol/kg p.o. b.i.d. for 12 days beginning 7 days after MIA): 33±3.0%; % effect, acutely dosed group of chronic study ([1]; 10 μmol/kg p.o., acute): 9±3%; % effect, chronic dosing ([1]; 30 μmol/kg p.o. b.i.d. for 12 days beginning 7 days after MIA): 67±3%; % effect, acutely dosed group of chronic study ([1]; 30 μmol/kg p.o., acute): 42±3%; % effect, acute positive control of chronic study ([1]; 100 μmol/kg p.o., acute): 88±4%; inhibition in vivo at 100 µmol/kg [1, 4]: 87 ± 6%; ED50 [1, 5]: 16 to 42 µmol/kg; ED50 [1, 6]: 27 µmol/kg

For `O=C(O)Cc1ccccc1Nc1c(Cl)cccc1Cl` [diclofenac], which inhibition in vivo at 100 µmol/kg [1, 4] is on record?
The inhibition in vivo at 100 µmol/kg was 77 ± 5%.

And the ED50 [1, 5]?
Its ED50 is 22 to 38 µmol/kg.

And the ED50 [1, 6]?
Its ED50 is 29 µmol/kg.

Which inhibition in vivo at 500 µmol/kg ([1]; Rattus norvegicus, po, 480 h, read-out: % effect (% return to normalcy of grip force)) does the source give for `NCC1(CC(=O)O)CCCCC1` [gabapentin] here?
Its inhibition in vivo at 500 µmol/kg is 61 ± 8%.

What about the ED50 ([1]; Rattus norvegicus, po, 480 h, read-out: CI95% of ED50) of the same compound?
Its ED50 is 100 to 295 µmol/kg.

What about the ED50 ([1]; Rattus norvegicus, po, 480 h, read-out: ED50, reversal of decreased grip force) of the same compound?
The ED50 was 159 µmol/kg.

Which inhibition in vivo at 300 µmol/kg [1, 4] does the source give for `CC(C)Cc1ccc(C(C)C(=O)O)cc1` (stereo not shown) [ibuprofen] here?
The inhibition in vivo at 300 µmol/kg was 29 ± 8%.

With `COc1ccc2c(c1)c(CC(=O)O)c(C)n2C(=O)c1ccc(Cl)cc1` [indomethacin] as the compound, how does the inhibition in vivo at 85 µmol/kg [1, 4] read?
The inhibition in vivo at 85 µmol/kg was 44 ± 6%.

For `CN1CC[C@]23c4c5ccc(O)c4O[C@H]2[C@@H](O)C=C[C@H]3[C@H]1C5` [morphine], which inhibition in vivo at 8 µmol/kg ([1]; Rattus norvegicus, sc, 480 h, read-out: % effect (% return to normalcy of grip force)) is on record?
The inhibition in vivo at 8 µmol/kg was 34 ± 3%.

And the “reduction of grip force vs untreated naïve rats” value ([2]; 8 μmol/kg (6 mg/kg) s.c.)?
The value was 13±3%.

And the “reduction of grip force vs untreated naïve rats” value ([2]; 13 μmol/kg (10 mg/kg) s.c.)?
Its value is 52±3%.

What does the source list for `COc1cccc(C2(O)CCCCC2CN(C)C)c1` (stereo not shown) [tramadol]?
inhibition in vivo at 100 µmol/kg ([1]; Rattus norvegicus, ip, 480 h, read-out: % effect (% return to normalcy of grip force)): 79 ± 5%; ED50 ([1]; Rattus norvegicus, ip, 480 h, read-out: CI95% of ED50): 32 to 54 µmol/kg; ED50 ([1]; Rattus norvegicus, ip, 480 h, read-out: ED50, reversal of decreased grip force): 40 µmol/kg

sodium monoiodoacetate [MIA] was tested. Which “hind limb grip force (GF)” value [3] did it give?
The value was 420.96 ± 25.07 g.
